Assay results published in US6303101A, “Bismuth compounds” (Nycomed Imaging AS, priority 1995, dated 2001).

Key:
Helicobacter pylori = assay: Minimal Inhibitory Concentrations against Helicobacter pylori on agar plates; assay type: cell-based
Experimental: Activity of bismuth compounds against Helicobarter pylori
Various bismuth compounds were tested in different concentrations against Helicobacter pylori on agar plates. Minimal Inhibitory Concentrations (MIC--values) are given in mg substance per litre.

[1] = stability against hydrolysis; assay type: physicochemical; details: dissolved in aqueous (25%) tetrahydrofuran, under reflux
Description: When the R1-5 -groups form Bi--C bonds, aryl grou7ps are generally preferred. At least one of the R1-5 -groups should be an aryl group or substituted aryl group. The term "aryl group" here means any aromatic hydrocarbon ring system or aromatic heterocyclic system. Typical ring systems include for example benzene, naphthalene, indene, fluorene, phenalene, phenanthrene, anthracene, fluoranthene, acephenanthrylene, aceanthrylene, triphenylene, pyrene, chrysene, naphthacene, pleiadene, picene, perylene, pentaphene, pentacene, tetraphenylene, hexaphene, hexacene, rubicene, coronene, trinaphthylene, heptaphene, rubicene, coronene, heptacene, pyranthrene, ovalene, furan, thiophene, thianthrene, pyran, isobenzofuran, chromene, xanthene, phenoxathin, pyrrole, imidazole, pyrazole, isothiazole, isoxazole, pyridine, pyrazine, pyrimidine, pyradizine, indolizine, isoindole, indole, indazole, purine, quinolizine, isocaunoline, quinoline, phtalazine, naphyhyridine, quinoxaline, quinazoline, cinnoline, pteridine, carbazole, β-carboline, phenanthridine, acridine, permidine, phenanthroline, phenazine, phenarsazine, phenothiazine, furazan, phenoxazine, isochroman, chroman, indoline and iso-indoline.

Compound	Minimal Inhibitory Concentration (MIC - value) (Helicobacter pylori) [mg substance per litre]	stability against hydrolysis [1]
Tris(2,4,6trimethylphenyl)bismuthine dichloride [Example 15]	≤ 0.25	
Triphenylbismuthine difluoride [Example 16]	8	
O=[N+]([O-])[O-].O=[N+]([O-])[O-].O=[N+]([O-])[O-].O=[N+]([O-])[O-].[Bi+3].[Bi+3].[Bi+3].[Bi+3].[Bi+3].[O-2].[OH-].[OH-].[OH-].[OH-].[OH-].[OH-].[OH-].[OH-].[OH-] [Bismuth subnitrate, bismuth hydroxide nitrate oxide]	32	
c1cc[c]([Bi]([c]2ccccc2)[c]2ccccc2)cc1 [triphenylbismuth]		stable under reflux for many days
